Experimental findings from PMC3472742, “Bio-Guided Isolation of the Cytotoxic Terpenoids from the Roots of Euphorbia kansui against Human Normal Cell Lines L-O2 and GES-1” (International Journal of Molecular Sciences, 2012) are described below.

The structures appear in SMILES notation. Where two headings read alike, the source gives them in different places.

In data set [1] the test system is human normal liver cells L-O2. As to the kind of experiment: MTT cell proliferation (cytotoxicity) assay on human normal liver cells L-O2. It counts as cell-based. The settings on record: for IC50: 48 h, pure compounds, MTT, n = 6, read-out: IC50 L-O2 (proliferation inhibition). The protocol: (§1) Human normal liver cell L-O2 was kindly donated by the School of Life Science, Nanjing Normal University (Nanjing, China), and Human normal gastric epithelial cell GES-1 was kindly donated by the Department of Gastroenterology, Nanjing Drum Tower Hospital (Nanjing, China). Human normal liver cell LO-2 was routinely cultured in DMEM medium, supplemented with 10% (v/v) fetal bovine serum (FBS), 100 U/mL of penicillin and 100 μg/mL of streptomycin in a humidified atmosphere with 5% CO2 at 37 °C in an incubator. The culture medium was changed every day. Cultures were dissociated with 0.25% trypsase in phosphate buffered (pH 7.2~7.4) saline (PBS). Human normal gastric epithelial cell GES-1 was routinely cultured in DMEM medium, supplemented with 15% (v/v) calf serum (CS), 100 U/mL of penicillin and 100 μg/mL of streptomycin in a humidified atmosphere with 5% CO2 at 37 °C in an incubator. The culture medium was changed every two days. Cultures were dissociated with 0.25% trypsase and 0.05% EDTA in PBS (pH 7.2~7.4).
(§2) Cytotoxicity activity was assayed by MTT method as described. Briefly, cells were seeded in 96-well plates (Costar, Corning Co., Ltd., Beijing, China) with 100 μL at a concentration of cell suspension of 1.0 × 10_4 cells/mL (L-O2 cell) and 1.0 × 10_5 cells/mL (GES-1 cell), and incubated for 24 h at 37 °C in a humidified atmosphere of 5% CO2 in an incubator.
(§3) Every sample was solubilized in dimethyl sulfoxide (DMSO) to a concentration of 10 mg/mL and stored at 4 °C, then diluted with complete medium to the desired series concentration before treating the cells. Each solution was added into 96-well plates with 100 μL per well, repeated 6 well. Cells of the control groups were treated with the same volume of medium. The treated cells with different groups were incubated for 48 h at 37 °C in a humidified atmosphere of 5% CO2 in an incubator. Then, the treated cells were added with 20 μL/well of MTT (5.0 mg/mL), and incubated for a further 4 h in an incubator. The growth medium was removed from all the wells, and 150 μL DMSO were added to each well. The plates were shaken gently for 10 min to blend the mixture. The absorbance value of each well was read at 490 nm using a microplate reader. All experiments were performed at least three times. The inhibition rate of cell proliferation was calculated according to the formula:
(§4) (1) cell inhibition (%)=1-sample solution absorbance value/control absorbance value)×100%
(§5) The results were expressed as an inhibition ratio and IC50 (concentration that inhibits 50% of cell growth). The data were analyzed with software SPSS 15.0 (SPSS Inc.: Chicago, IL, USA). The anti-proliferation activity is more significant when the IC50 is smaller.

Data set [2] relates to human normal gastric epithelial cell GES-1. As to the kind of experiment: MTT cell proliferation (cytotoxicity) assay on human normal gastric epithelial cells GES-1. The settings on record: for IC50: pure compounds, MTT, 48 h, n = 6, read-out: IC50 GES-1 (proliferation inhibition); for inhibition activity on GES-1 cell lines growth vs control, dose-dependent: Figure 2. It counts as cell-based. Here is the method:
as §1, §2, §3, §4, §5

[3] abbreviates: concentration range 0.78–12.5 μg/mL, Figure 3.
Setting [4] is: concentration range 0.78–12.5 μg/mL.
The mark [5] stands for this setting: concentration range 0.39–6.25 μg/mL.

For `C=C1[C@H](OC(C)=O)[C@@H](OC(=O)c2ccccc2)[C@@H](OC(C)=O)C(C)(C)[C@H]2O[C@](O)([C@H](C)C2=O)[C@@]2(OC(C)=O)C[C@H](C)[C@H](OC(C)=O)[C@@H]2[C@H]1OC(C)=O` [Compound 1, kansuinine A], the IC50 was more than 100 µM in data set [1] (Homo sapiens) and more than 100 µM in data set [2] (Homo sapiens, GES1, 48 h).
In the case of `C=C1C(OC(=O)c2ccccc2)C(O)C(=O)C(C)(C)C2OC2C(C)C(=O)C2(O)C(C1OC(=O)c1ccccc1)C(OC(C)=O)C(C)(O)C2OC(C)=O` (stereo not drawn) [Compound 2, kansuinine B], the IC50 in data set [1] (Homo sapiens) is more than 100 µM; in data set [2] (Homo sapiens, GES1, 48 h), more than 100 µM.
Turning to `CC(=O)OC1C(C)=CC23C(=O)C(C=C(C)C(OC(=O)c4ccccc4)C12O)C1C(CC3C)C1(C)C` (stereo not drawn) [Compound 4, kansuiphorin C], the IC50 is more than 100 µM in data set [1] (Homo sapiens) and more than 100 µM in data set [2] (Homo sapiens, GES1, 48 h).
`CCCCCC=CC=CC(=O)OC1C(C)=CC23C(=O)C(C=C(COC(C)=O)C(O)C12O)C1C(CC3C)C1(C)C` (stereo not drawn) [Compound 5, 3-O-(2′E,4′Z-Decadienoyl)-20-O-acetylingenol]: the IC50 turned out to be 12.4 µM in data set [1] (Homo sapiens) and 8.51 µM in data set [2] (Homo sapiens, GES1, 48 h). Also, the “inhibition activity on L-O2 cell lines growth vs control, dose-dependent” value in data set [1] (setting [3]) is reported as “significant inhibition activity”. For the same compound, in data set [2] (setting [4]), the “inhibition activity on GES-1 cell lines growth vs control, dose-dependent” value is given as “significant inhibition activity”.
Consider `CCCCCC=CC=CC(=O)OC1C(C)=CC23C(=O)C(C=C(COC(C)=O)C(O)C12O)C1C(CC3C)C1(C)C` (stereo not drawn) [Compound 6, 3-O-(2′E,4′E-Decadienoyl)-20-O-acetylingenol], for which, in data set [1] (setting [3]), the “inhibition activity on L-O2 cell lines growth vs control, dose-dependent” value is listed as “significant inhibition activity”. The IC50 worked out at 8.22 µM in data set [1] and 6.67 µM in data set [2]. Also, the “inhibition activity on GES-1 cell lines growth vs control, dose-dependent” value in data set [2] (setting [5]) is given as “significant inhibition activity”.
With `CCCCCC=CC=CC(=O)OC1C(C)=CC23C(=O)C(C=C(C)C(O)C12O)C1C(CC3C)C1(C)C` (stereo not drawn) [Compound 7, 3-O-(2′E,4′Z-Decadienoyl)-20-deoxyingenol], the IC50 is 13.1 µM in data set [1] (Homo sapiens) and 3.53 µM in data set [2] (Homo sapiens, GES1, 48 h). The “inhibition activity on L-O2 cell lines growth vs control, dose-dependent” value in data set [1] (setting [3]) is “significant inhibition activity”. Besides, in data set [2] (setting [4]), the “inhibition activity on GES-1 cell lines growth vs control, dose-dependent” value is “significant inhibition activity”.
On to `CC1=CC2C(=O)C3(C=C(C)C(OC(=O)c4ccccc4)C3(O)C1O)C(C)CC1C2C1(C)C` (stereo not drawn) [Compound 8, 3-O-Benzoyl-20-deoxyingenol], for which the IC50 is 70.8 µM in data set [1] (Homo sapiens) and 23.5 µM in data set [2] (Homo sapiens, GES1, 48 h). In addition, the “inhibition activity on L-O2 cell lines growth vs control” value in data set [1] (concentration range 3.125–50 μg/mL, Figure 3) is given as “significant inhibition activity”. For the same compound, the “inhibition activity on GES-1 cell lines growth vs control, dose-dependent” value in data set [2] (setting [4]) was “significant inhibition activity”.
For `CC1=CC23C(=O)C(C=C(C)C(OC(=O)c4ccccc4)C2(O)C1O)C1C(CC3C)C1(C)C` (stereo not drawn) [Compound 9, 5-O-Benzoyl-20-deoxyingenol], the IC50 came out at 34.5 µM in data set [1] (Homo sapiens) and 22 µM in data set [2] (Homo sapiens, GES1, 48 h). Besides, in data set [1] (concentration range 1.56–25 μg/mL, Figure 3), the “inhibition activity on L-O2 cell lines growth vs control, dose-dependent” value is recorded as “significant inhibition activity”. Moreover, in data set [2] (concentration range 1.56–25 μg/mL), the “inhibition activity on GES-1 cell lines growth vs control, dose-dependent” value is given as “significant inhibition activity”.
A word on the melting point: it is the temperature, or range, at which the solid turns liquid. Compound `CC(C)=CCC[C@H](C)[C@@H]1CC[C@]2(C)C3=C(CC[C@@]12C)[C@@]1(C)CC[C@H](O)C(C)(C)C1CC3=O` (stereo partly drawn) [Compound 11, epi-kansenone] showed a melting point of 116 to 118 °C. In addition, the IC50 in data set [1] (Homo sapiens) stood at 17.8 µM. The “inhibition activity on L-O2 cell lines growth vs control, dose-dependent” value in data set [1] (setting [3]) is listed as “significant inhibition activity”. In addition, the IC50 in data set [2] (Homo sapiens, GES1, 48 h) is 8.04 µM. For the same compound, the “inhibition activity on GES-1 cell lines growth vs control, dose-dependent” value in data set [2] (setting [5]) is listed as “significant inhibition activity”.
On to `CC(C)=CCC[C@@H](C)[C@@H]1CC[C@]2(C)C3=C(CC[C@@]12C)[C@@]1(C)CC[C@H](O)C(C)(C)[C@@H]1CC3` [Compound 12, euphol], for which the IC50 in data set [1] (Homo sapiens) is more than 100 µM; in data set [2] (Homo sapiens, GES1, 48 h) it was more than 100 µM.
